Results from the supplement of paper PMC10307832.

How the values were obtained:
Assay in all cases: relative viability (nuclei count vs DMSO), 5 days (fraction); higher = more cells survive
[1] = tested on: ChaGo-K-1
Summary of the method: (§1)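 Cells from lung cancer lines were seeded into 1536-well plates and, one day later, dosed by pin tool. Treatments were either a single drug or a fixed dose of an anchor drug with five library-drug doses (not always all listed) in √10 steps. After 5 days, nuclei were stained in a one-step fixation (final 0.05% Triton X-100, 1% formaldehyde, 1 ug/ml Hoechst) and counted on 4× images, and relative viability is the treated-to-vehicle nuclei ratio, as the median of duplicate plates.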

[2] = tested on: HCC-78
Summary of the method: as §1

[3] = tested on: HOP-62
Summary of the method: as §1

[4] = tested on: LCLC-97TM1
Summary of the method: as §1

[5] = tested on: LOU-NH91
Summary of the method: as §1

[6] = tested on: NCI-H1355
Summary of the method: as §1

[7] = tested on: NCI-H1437
Summary of the method: as §1

[8] = tested on: NCI-H1648
Summary of the method: as §1

[9] = tested on: NCI-H1755
Summary of the method: as §1

[10] = tested on: NCI-H1792
Summary of the method: as §1

[11] = tested on: NCI-H2009
Summary of the method: as §1

[12] = tested on: NCI-H2023
Summary of the method: as §1

[13] = tested on: NCI-H2085
Summary of the method: as §1

[14] = tested on: NCI-H2170
Summary of the method: as §1

[15] = tested on: NCI-H2342
Summary of the method: as §1

[16] = tested on: NCI-H23
Summary of the method: as §1

[17] = tested on: NCI-H2405
Summary of the method: as §1

[18] = tested on: NCI-H322M
Summary of the method: as §1

[19] = tested on: NCI-H650
Summary of the method: as §1

[20] = tested on: RERF-LC-KJ
Summary of the method: as §1

[21] = tested on: SK-MES-1
Summary of the method: as §1

[22] = tested on: UMC-11
Summary of the method: as §1

`CCCCCCCCCCCC1=C(O)C(=O)C=C(O)C1=O` [Embelin] + Nc1nc2[nH]cc(CCc3ccc(C(=O)N[C@@H](CCC(=O)O)C(=O)O)cc3)c2c(=O)[nH]1 [Pemetrexed] (partner 0.2 µM) showed a relative viability ([1]; first compound 0.08 µM) of 0.264, a relative viability ([1]; first compound 0.8 µM) of 0.258 and a relative viability ([1]; first compound 2.53 µM) of 0.249. The relative viability ([1]; first compound 8 µM) was 0.251, the relative viability ([2]; first compound 0.08 µM) was 0.924 and the relative viability ([2]; first compound 0.8 µM) was 0.895. The relative viability ([2]; first compound 2.53 µM) was 0.982, the relative viability ([2]; first compound 8 µM) was 0.949 and the relative viability ([3]; first compound 0.08 µM) was 0.384. The relative viability ([3]; first compound 0.8 µM) was 0.365, the relative viability ([3]; first compound 2.53 µM) was 0.308 and the relative viability ([3]; first compound 8 µM) was 0.303. The relative viability ([4]; first compound 0.08 µM) was 0.17, the relative viability ([4]; first compound 0.8 µM) was 0.166 and the relative viability ([4]; first compound 2.53 µM) was 0.163. The relative viability ([4]; first compound 8 µM) was 0.182, the relative viability ([5]; first compound 0.08 µM) was 0.357 and the relative viability ([5]; first compound 0.8 µM) was 0.385. For the same compound, the relative viability ([5]; first compound 2.53 µM) was 0.381, the relative viability ([5]; first compound 8 µM) was 0.466 and the relative viability ([6]; first compound 0.08 µM) was 1.06. The relative viability ([6]; first compound 0.8 µM) was 1.13, the relative viability ([6]; first compound 2.53 µM) was 1.12 and the relative viability ([6]; first compound 8 µM) was 0.784. The relative viability ([7]; first compound 0.08 µM) was 0.339, the relative viability ([7]; first compound 0.8 µM) was 0.306 and the relative viability ([7]; first compound 2.53 µM) was 0.317. It also gave a relative viability ([7]; first compound 8 µM) of 0.215, a relative viability ([8]; first compound 0.08 µM) of 0.682 and a relative viability ([8]; first compound 0.8 µM) of 0.675. It also gave a relative viability ([8]; first compound 2.53 µM) of 0.776, a relative viability ([8]; first compound 8 µM) of 0.662 and a relative viability ([9]; first compound 0.08 µM) of 0.448. For the same compound, the relative viability ([9]; first compound 0.8 µM) was 0.468, the relative viability ([9]; first compound 2.53 µM) was 0.433 and the relative viability ([9]; first compound 8 µM) was 0.46. The relative viability ([10]; first compound 0.08 µM) was 0.815, the relative viability ([10]; first compound 0.8 µM) was 0.817 and the relative viability ([10]; first compound 2.53 µM) was 1.06. The relative viability ([10]; first compound 8 µM) was 0.382, the relative viability ([11]; first compound 0.08 µM) was 1.08 and the relative viability ([11]; first compound 0.8 µM) was 1.09. The relative viability ([11]; first compound 2.53 µM) was 1.06, the relative viability ([11]; first compound 8 µM) was 1.01 and the relative viability ([12]; first compound 0.08 µM) was 0.206. It also gave a relative viability ([12]; first compound 0.8 µM) of 0.244, a relative viability ([12]; first compound 2.53 µM) of 0.226 and a relative viability ([12]; first compound 8 µM) of 0.249. For the same compound, the relative viability ([13]; first compound 0.08 µM) was 0.854, the relative viability ([13]; first compound 0.8 µM) was 1.01 and the relative viability ([13]; first compound 2.53 µM) was 0.87. It also gave a relative viability ([13]; first compound 8 µM) of 0.871, a relative viability ([14]; first compound 0.08 µM) of 0.264 and a relative viability ([14]; first compound 0.8 µM) of 0.252. It also gave a relative viability ([14]; first compound 2.53 µM) of 0.276, a relative viability ([14]; first compound 8 µM) of 0.274 and a relative viability ([15]; first compound 0.08 µM) of 0.738. For the same compound, the relative viability ([15]; first compound 0.8 µM) was 0.806, the relative viability ([15]; first compound 2.53 µM) was 0.859 and the relative viability ([15]; first compound 8 µM) was 0.814. For the same compound, the relative viability ([16]; first compound 0.08 µM) was 0.786, the relative viability ([16]; first compound 0.8 µM) was 0.675 and the relative viability ([16]; first compound 2.53 µM) was 0.589. It also gave a relative viability ([16]; first compound 8 µM) of 0.665, a relative viability ([17]; first compound 0.08 µM) of 1.09 and a relative viability ([17]; first compound 0.8 µM) of 1.15. It also gave a relative viability ([17]; first compound 2.53 µM) of 1.18, a relative viability ([17]; first compound 8 µM) of 0.818 and a relative viability ([18]; first compound 0.08 µM) of 0.598. The relative viability ([18]; first compound 0.8 µM) was 0.625, the relative viability ([18]; first compound 2.53 µM) was 0.646 and the relative viability ([18]; first compound 8 µM) was 0.667. The relative viability ([19]; first compound 0.08 µM) was 0.968, the relative viability ([19]; first compound 0.8 µM) was 1.17 and the relative viability ([19]; first compound 2.53 µM) was 0.979. For the same compound, the relative viability ([19]; first compound 8 µM) was 0.954, the relative viability ([20]; first compound 0.08 µM) was 0.502 and the relative viability ([20]; first compound 0.8 µM) was 0.498. For the same compound, the relative viability ([20]; first compound 2.53 µM) was 0.504, the relative viability ([20]; first compound 8 µM) was 0.474 and the relative viability ([21]; first compound 0.08 µM) was 1.01. The relative viability ([21]; first compound 0.8 µM) was 1.05, the relative viability ([21]; first compound 2.53 µM) was 0.937 and the relative viability ([21]; first compound 8 µM) was 0.824. For the same compound, the relative viability ([22]; first compound 0.08 µM) was 0.812, the relative viability ([22]; first compound 0.8 µM) was 0.849 and the relative viability ([22]; first compound 2.53 µM) was 0.928. For the same compound, the relative viability ([22]; first compound 8 µM) was 0.806.
